This is an account of results in patent US4154852A, “Novel aminobenzocycloheptenes” (Roussel Uclaf, priority 1976, dated 1979).

Data set [1] relates to effects of L-dopa. The data set is described as follows: Potentialization of effects of L-dopa in iproniazide-pretreated mice. In kind it is in vivo. The settings on record: Mus musculus, ip; i.p. one hour before L-dopa 100 mg/kg i.p.; iproniazide 75 mg/kg i.p. 18 hours before; male mice; read-out: ED50 (dose which potentializes by 50% the L-dopa effects). On the procedure: The administration of L-dopa to mice pretreated 18 hours previously with iproniazide produced certain number of symptoms; muscular hypertonicity, hyperactivity, agitation, crying, aggressiveness, salivation and exophthalmy. The intensity of these effects is potentialized by administration of an antidepressant one hour before the administration of L-dopa. Male mice received intraperitoneally 75 mg/kg of iproniazide 18 hours before the start of the test and the tested product was intraperitoneally administered in aqueous solution in increasing doses. One hour later, L-dopa was intraperitoneally administered at a dose of 100 mg/kg and the different symptoms were observed 15 and 30 minutes later. They were evaluated on a scale of 0 to 3 for each animal and the totals for each dose were determined.

Data set [2] concerns effects of nialamide (monoamine oxidase inhibitor). The data set is described as follows: Potentialization of effects of monoamine oxidase inhibitor (nialamide) in mice, actimetric measurement. In kind it is in vivo. Particulars: nialamide 100 mg/kg i.p. 30 minutes before, 6 hours. On the procedure:
The administration of a monoamine oxidase inhibitor to mice induces a hyperactive movement of the animals which is able to be potentialized by an antidepressant. Using the procedure of Carlsson et al [Brain Research, Vol. 12 (1969), p. 456], a dose of 100 mg/kg of nialamide was intraperitoneally administered to mice 30 minutes before the intraperitoneal administration of the tested product and the values of actimetric measurements were recorded every 30 minutes for 6 hours. Potentialization of the effects of nialamide for the tested product was expressed in increasing number of + signs for a determined dose in mg/kg.

Data set [3] has as its system serotonine (5HT) uptake. The data set is described as follows: Inhibition of serotonine uptake in vitro (14C-5HT, impure brain synaptosomes). Format: biochemical, female rat. Particulars: rat brain synaptosomes, 37° C., 5 minutes, 14 C-5HT 10^-7 M; read-out: Test in vitro I.C. 50 (inhibition of 14C-5HT uptake). On the procedure: (§1) The inhibition of serotonine (5HT) uptake was measured in impure synaptosomes prepared from the entire brain of a female rat 19 to 21 days old using the technique of Kannengiesser et al. [Biochemical Pharmacology,Vol. 22, (1973) p. 73]. Diverse concentrations of the products were placed in an incubator with the preparation at 37° C. for 5 minutes in the presence of 14 C-5HT at a concentration of 10^-7 M. The 50% inhibiting concentration (IC50), dose which inhibits by 50% the uptake of 14C-5HT in the synaptosomes was determined graphically and the IC50 dose for the compounds is reported in Table V.

The test system of data set [4] is uptake of 14C-5HT. The data set is described as follows: Inhibition of serotonine uptake in vivo (synaptosomes prepared after administration to rats). Also on record: key: the activity was expressed in increasing number of + signs; ++: the activity was expressed in increasing number of + signs; +++: the activity was expressed in increasing number of + signs. The settings on record: 5 to 20 mg/kg i.p., female rats 19 to 21 days old, brain removed after 30 minutes. On the procedure:
as §1
The tested products were intraperitoneally administered to groups of female rats 19 to 21 days old at doses of 5 to 20 mg/kg. After 30 minutes, the brain was removed and synaptosomes were prepared and placed in an incubator in the presence of 14 C-5HT as indicated in the previous test.

The test system of data set [5] is 5-hydroxytryptophane (5 HTP) effects. The data set is described as follows: Potentialization of 5 HTP effects (trembling) in mice. In kind it is in vivo. Particulars: Mus musculus, i.p. one hour before 200 mg/kg 5-HTP i.p., observed every 15 minutes for one hour, read-out: MAD (minimum active dose), potentialization of 5 HTP effects. On the procedure:
The administration of 5-hydroxytryptophane (5 HTP) to mice pretreated with an antidepressant induces in the mice a particular behaviour namely the appearance of trembling.
The test product was intraperitoneally administered in increasing doses one hour before the intraperitoneal administration of 200 mg/kg of 5-HTP and the symptoms were observed were noted every 15 minutes for one hour to determine the minimum active dose (MAD) of the test product.

Data set [6] can be described thus: Acute toxicity in mice. Particulars: mouse, in vivo, ip, intraperitoneal, determined 48 hours later, read-out: DL50 (dose which kills 50% of mice). On the procedure:
The DL50 dose which kills 50% of mice after intraperitoneal administration of the tested compound was determined 48 hours later and the DL50 for the compounds is reported in Table IV.

Take `CNC1C=Cc2cc([N+](=O)[O-])ccc2CC1.Cl` (stereo not shown) [Example 1, 2-nitro-7-methylamino-6,7-dihydro [5H] benzocycloheptene hydrochloride]: in data set [1], the ED50 amounted to 1 mg/kg. Further, the “Potentialization of Nialamide” value in data set [2] (tested product 5 mg/kg i.p.) is “+”; in data set [2] (tested product 20 mg/kg i.p.), “++”. The IC50 in data set [3] was found to be 320 nM. Also, the “In vivo Test (relative power to inhibit the uptake of 14C-5HT)” value in data set [4] is on record as “+++”. The minimal effective dose in data set [5] came out at 10 mg/kg. The LD50 at 48 h in data set [6] is 75 mg/kg.

As for `CNC1C=Cc2cc(N)ccc2CC1.O=C(O)/C=C/C(=O)O` (stereo not shown) [Example 2, 2-amino-7-methylamino-6,7-dihydro [5H] benzocycloheptene fumarate], the ED50 in data set [1] came out at 10 mg/kg. Also, the “Potentialization of Nialamide” value was “+” in data set [2] (tested product 5 mg/kg i.p.) and “++” in data set [2] (tested product 20 mg/kg i.p.). Moreover, in data set [3], the IC50 was 4000 nM. The “In vivo Test (relative power to inhibit the uptake of 14C-5HT)” value in data set [4] is listed as “+”. In addition, the minimal effective dose in data set [5] came to 5 mg/kg. Moreover, the LD50 at 48 h in data set [6] amounted to 75 mg/kg.

As to `CNC1C=Cc2cc(OC)ccc2CC1.Cl` (stereo not shown) [Example 3, 2-methoxy-7-methylamino-6,7-dihydro [5H] benzocycloheptene hydrochloride], the ED50 in data set [1] was 5 mg/kg. Moreover, the “Potentialization of Nialamide” value is on record as “+” in data set [2] (tested product 1 mg/kg i.p.) and “++” in data set [2] (tested product 5 mg/kg i.p.). Further, the IC50 in data set [3] came to 270 nM. Moreover, in data set [4], the “In vivo Test (relative power to inhibit the uptake of 14C-5HT)” value was “++”. The LD50 at 48 h in data set [6] was determined as 50 mg/kg.

With `CNC1C=Cc2cc(O)ccc2CC1.Cl` (stereo not shown) [Example 4, 7-methylamino-6,7-dihydro [5H] benzocycloheptene-2-ol hydrochloride], the IC50 in data set [3] amounted to 380 nM. In addition, in data set [6], the LD50 at 48 h worked out at 50 mg/kg.
